From patent publication US20210355107A1, “MULTI-SUBSTITUTED PYRIDONE DERIVATIVES AND MEDICAL USE THEREOF” (Beijing Yuezhikangtai Biomedicines Co., Ltd., priority 2018, published 2021)

Tested on: EBC-1 cells
Test: EBC-1 cell proliferation, CellTiter-Glo Luminescent Cell Viability Assay
Type: cell-based
Conditions: Homo sapiens, 72 h incubation, read-out: IC50 (nM) against EBC-1 cells
Method: Test Example 3: Inhibitory Activity of Compounds disclosed herein against EBC-1 Cells
Test method: the inhibitory activity of the compounds against EBC-1 cell proliferation was evaluated using CellTiter-Glo® Luminescent Cell Viability Assay Kit (Promega).
Test procedures: when thawing EBC-1 cells, the cell cryopreservation tube was shaken rapidly in a water bath at 37° C. to thaw the cells in 1 min. The cell suspension after thawing was mixed with RPMI1640 culture medium containing 10% FBS and centrifuged for 5 min at 1000 rpm, and the supernatant was discarded. The cell pellet was suspended in 5 mL of complete culture medium. The suspension was placed in a cell culture flask with a bottom area of 25 cm^2, and cultured in a cell incubator at 37° C./95% humidity/5% CO2. Cell passage was performed when cell confluence reached about 80%. When the cells were passaged, the original cell suspension was directly made uniform by pipetting. 1/6 of the cell suspension was kept, added with 5 mL of new complete culture medium and then made uniform by pipetting. The cell culture flask was then placed in a cell incubator for further culturing. Cell plating was performed when the cell confluence reached about 80% again. With reference to the method for cell passage, 1/6 cell suspension was kept for further culturing when the cells were plated, and the remaining 5/6 of cell suspension was placed in a 15 mL centrifuge tube. Cell viability was detected by trypan blue exclusion using an IC1000 cell counter (Countstar) to ensure that cell viability was above 90%. Cell suspension at a density of 3.33×10^4 viable cells/mL was prepared using complete culture medium, and 90 μL of the cell suspension was added into 96-well cell culture plates, so that the cell density in the cell culture plates (day 0 plate and test compound plate) was 3000 viable cells/well. A control group that contains no cell or compound but only complete culture medium and a control group that contains no compound but cells were set. The cell plates were incubated overnight in a cell incubator. […] 10 μL of the above solution was added into a corresponding cell culture plate to ensure that the initial concentration of the compound was 10 μM, the dilution factor of adjacent concentration was 3.16, and the DMSO content in the cell culture plate was 0.1%. The cell plates were then incubated in the cell incubator for 72 h. During detection, CellTiter-Glo reagent (namely CellTiter-Glo® […] cell viability test reagent, Promega, Cat. No. G7572, Lot. No. 0000310975) was melted, and the cell plate was equilibrated at room temperature for 30 min. The cell plate was added with the CellTiter-Glo reagent at 100 μL per well, and then shaken on a QB-9001 microporous quick shaker (Kylin-Bell) for 5 min to fully lyse the cells. The cell plate was left to stand at room temperature for 20 min to stabilize luminescence signals, and the luminescence value of each well was scanned by a Spectramax M3 multi-functional microplate reader (Molecular Devices) at full wavelength.
Test samples: example compounds of the present invention and cabozantinib (positive control compound).
Data analysis: cell viability was calculated for compounds at various concentrations using the following formula:
Cell viability(%)=(Lumtest compound−Lumculture solution control)/(Lumcell control−Lumculture solution control)×100%,
where Lum refers to the luminescence value of each well of the test compound plate read by the multi-functional microplate reader.
The data were analyzed using GraphPad Prism 7.0 software, fitted with nonlinear S-curve regression to give dose-response curves, and IC50 values were calculated therefrom.

| Compound | IC50 |
| --- | --- |
| CC(C)n1cc(C(=O)Nc2ccc(-c3cc(-c4cnn(C5CCNCC5)c4)cnc3N)c(F)c2)c(=O)c(-c2ccc(F)cc2)c1C#N [Example 2, N-(4-(2-amino-5-(1-(piperidin-4-yl)-1H-pyrazol-4-yl)pyridin-3-yl)-3-fluorophenyl)-6-cyano-5-(4-fluorophenyl)-1-isopropyl-4-oxo-1,4-dihydropyridine-3-carboxamide] | 24 nM |
| COc1cc2nccc(Oc3ccc(NC(=O)c4cn(C(C)C)c(C#N)c(-c5ccc(F)cc5)c4=O)cc3F)c2cc1OC [Example 24, 6-cyano-N-(4-((6,7-dimethoxyquinolin-4-yl)oxy)-3-fluoro-phenyl)-5-(4-fluorophenyl)-1-isopropyl-4-oxo-1,4-dihydropyridine-3-carboxamide] | 45 nM |
| CCn1cc(-c2cnc(N)c(-c3ccc(NC(=O)c4cn(C5CC5)c(C#N)c(-c5ccc(F)cc5)c4=O)cc3F)c2)cn1 [Example 10, N-(4-(2-amino-5-(1-ethyl-1H-pyrazol-4-yl)pyridin-3-yl)-3-fluorophenyl)-6-cyano-5-(4-fluorophenyl)-1-cyclopropyl-4-oxo-1,4-dihydropyridine-3-carboxamide] | 208 nM |
| CC(C)n1cc(C(=O)Nc2ccc(-c3cc(-c4cnn(C)c4)cnc3N)c(F)c2)c(=O)c(-c2ccc(F)cc2)c1C#N [Example 4, N-(4-(2-amino-5-(1-methyl-1H-pyrazol-4-yl)pyridin-3-yl)-3-fluorophenyl)-6-cyano-5-(4-fluorophenyl)-1-isopropyl-4-oxo-1,4-dihydropyridine-3-carboxamide] | 30 nM |
| CCn1cc(-c2cnc(N)c(-c3ccc(NC(=O)c4cn(C(C)C)c(C#N)c(-c5ccc(F)cc5)c4=O)cc3F)c2)cn1 [Example 3, N-(4-(2-amino-5-(1-ethyl-1H-pyrazol-4-yl)pyridin-3-yl)-3-fluoro-phenyl)-6-cyano-5-(4-fluorophenyl)-1-isopropyl-4-oxo-1,4-dihydropyridine-3-carboxamide] | 22 nM |
| CC(C)n1cc(C(=O)Nc2cc(F)c(-c3cc(-c4cnn(C)c4)cnc3N)cc2F)c(=O)c(-c2ccc(F)cc2)c1C#N [Example 6, N-(4-(2-amino-5-(1-methyl-1H-pyrazol-4-yl)pyridin-3-yl)-2,5-difluorophenyl)-6-cyano-5-(4-fluorophenyl)-1-isopropyl-4-oxo-1,4-dihydropyridine-3-carboxamide] | 13 nM |
| COc1cc2nccc(Oc3ccc(NC(=O)c4cn(C)c(C#N)c(-c5ccc(F)cc5)c4=O)cc3F)c2cc1OC [Example 21, 6-cyano-N-(4-((6,7-dimethoxyquinolin-4-yl)oxy)-3-fluoro-phenyl)-5-(4-fluorophenyl)-1-methyl-4-oxo-1,4-dihydropyridine-3-carboxamide] | 109 nM |
| CC(C)n1cc(C(=O)Nc2ccc(-c3cc(-c4cnn(C5CCN(C)CC5)c4)cnc3N)c(F)c2)c(=O)c(-c2ccc(F)cc2)c1C#N [Example 7, N-(4-(2-amino-5-(1-(1-methylpiperidin-4-yl)-1H-pyrazol-4-yl)-pyridin-3-yl)-3-fluorophenyl)-6-cyano-5-(4-fluorophenyl)-1-isopropyl-4-oxo-1,4-dihydro-pyridine-3-carboxamide] | 27 nM |
